Measurements as given in the NIST ThermoML archive (doi:10.1021/je049973v).

Conditions: Liquid; for speed of sound: Pulse-echo method; for mass density: Vibrating tube method

CCCCCCCCCCCCCCCCCCc1ccccc1 [octadecylbenzene]
Conditions	mass density, 313.15 K [kg/m3]	mass density, 323.15 K [kg/m3]	mass density, 333.15 K [kg/m3]	mass density, 343.15 K [kg/m3]	speed of sound, 313.15 K [m/s]	speed of sound, 323.15 K [m/s]	speed of sound, 333.15 K [m/s]	speed of sound, 343.15 K [m/s]
100 kPa	840.55	833.94	827.32	820.78	1392.9	1357.8	1325.5	1292.7
5000 kPa	843.37	836.91	830.4	824.1	–	–	–	–
10000 kPa	846.27	840.02	833.56	827.33	1439.6	1406.8	1374.8	1344.1
15000 kPa	849.15	842.88	836.59	830.48	–	–	–	–
20000 kPa	–	–	–	–	1484.1	1452.4	1422.6	1392.8
25000 kPa	854.46	848.32	842.3	836.54	–	–	–	–
30000 kPa	856.89	850.96	845.04	839.35	1525.8	1495.5	1466.1	1437.7
35000 kPa	859.36	853.46	847.71	841.97	–	–	–	–
40000 kPa	861.48	856	850.3	844.62	1564.8	1535.6	1507.5	1480.2
45000 kPa	864.12	858.41	852.76	847.32	–	–	–	–
50000 kPa	866.37	860.91	855.26	849.82	1602.4	1574	1546.7	1519.9
55000 kPa	868.59	863.12	857.46	852.25	–	–	–	–
60000 kPa	870.16	865.36	859.86	854.6	1638.1	1610.3	1583.5	1558.1
70000 kPa	–	–	–	–	1672.1	1645.1	1619.1	–
80000 kPa	–	–	–	–	1704.7	1678.7	1652.8	–
90000 kPa	–	–	–	–	–	1710.4	1685.7	–
100000 kPa	–	–	–	–	–	1741.3	1717	–
110000 kPa	–	–	–	–	–	1771.2	1747.3	–
120000 kPa	–	–	–	–	–	1799.2	1775.7	–
130000 kPa	–	–	–	–	–	–	1803.9	–
140000 kPa	–	–	–	–	–	–	1830.9	–
150000 kPa	–	–	–	–	–	–	1857.5	–
